14 compounds from US20130109682A1, “CYCLIC ETHER COMPOUNDS USEFUL AS KINASE INHIBITORS” (NOVARTIS AG, priority 2010, published 2013) can be followed below.

Molecules are shown by their SMILES. Some results are limits rather than exact numbers.

Common to all, as to assay type: biochemical
One assay concerns the target KDR kinase (Homo sapiens, UniProt P35968). In words: KDR kinase inhibition assay (LanthaScreen TR-FRET). Particulars: TR-FRET assay. As for the experimental part:
KDR Kinase Inhibition Assay
LanthaScreen™ is the detection of Time-Resolved Fluorescence Resonance Energy Transfer (TR-FRET) using lanthanide chelates to measure interactions between various binding partners. The application of TR-FRET to assay kinase activity was first described by Mathis (1995). A TR-FRET assay was used to measure KDR kinase inhibitory activity. The assay panel was run on a Biomek FX liquid handling workstations. To the assay plates containing 50 nL compound or control solutions, 4.5 μL of buffer A (50 mM TRIS-HCl pH 7.4, 2 mM DTT, 0.02% Tween 20, 0.02 mM Na3VO4, H2O nanpure) including a generic concentration of ATP (2 μM f.c.) was added per well, followed by 4.5 μL of buffer B (4 uM ATP in Buffer A) including a generic concentration of polyEAY (50 nM f.c.), KDR kinase, and divalent cations. Final concentration of kinase and cations were: [KDR kinase]=0.38 nM, [Mg]=10 mM, [Ca]=1 mM. After 1 hour of incubation the kinase reactions were stopped by the addition of 4.5 μL of stop solution D (50 mM EDTA, 20 mM TRIS-HCl pH 7.4, 0.04% NP-40) immediately followed by 4.5 μL of buffer A (50 mM TRIS-HCl pH 7.4, 2 mM DTT, 0.02% Tween 20, 0.02 mM Na3VO4, H2O nanpure) including the Tb-labeled P-20 antibody to give a total detection volume of 18 μL. After an incubation time of 45 min in the dark, the plates were transferred into the Pherastar fluorescence reader for counting. The effect of compound on the enzymatic activity was obtained from the linear progress curves and determined from one reading (end point measurement).
For orientation: Time-resolved FRET reads energy transfer from a long-lived donor to a nearby acceptor.

A further assay deals with FGFR3 kinase (Homo sapiens, UniProt P22607). Kind of assay: FGFR3 kinase inhibition assay (LanthaScreen TR-FRET).
FGFR3 kinase, sequence (P22607 23-806): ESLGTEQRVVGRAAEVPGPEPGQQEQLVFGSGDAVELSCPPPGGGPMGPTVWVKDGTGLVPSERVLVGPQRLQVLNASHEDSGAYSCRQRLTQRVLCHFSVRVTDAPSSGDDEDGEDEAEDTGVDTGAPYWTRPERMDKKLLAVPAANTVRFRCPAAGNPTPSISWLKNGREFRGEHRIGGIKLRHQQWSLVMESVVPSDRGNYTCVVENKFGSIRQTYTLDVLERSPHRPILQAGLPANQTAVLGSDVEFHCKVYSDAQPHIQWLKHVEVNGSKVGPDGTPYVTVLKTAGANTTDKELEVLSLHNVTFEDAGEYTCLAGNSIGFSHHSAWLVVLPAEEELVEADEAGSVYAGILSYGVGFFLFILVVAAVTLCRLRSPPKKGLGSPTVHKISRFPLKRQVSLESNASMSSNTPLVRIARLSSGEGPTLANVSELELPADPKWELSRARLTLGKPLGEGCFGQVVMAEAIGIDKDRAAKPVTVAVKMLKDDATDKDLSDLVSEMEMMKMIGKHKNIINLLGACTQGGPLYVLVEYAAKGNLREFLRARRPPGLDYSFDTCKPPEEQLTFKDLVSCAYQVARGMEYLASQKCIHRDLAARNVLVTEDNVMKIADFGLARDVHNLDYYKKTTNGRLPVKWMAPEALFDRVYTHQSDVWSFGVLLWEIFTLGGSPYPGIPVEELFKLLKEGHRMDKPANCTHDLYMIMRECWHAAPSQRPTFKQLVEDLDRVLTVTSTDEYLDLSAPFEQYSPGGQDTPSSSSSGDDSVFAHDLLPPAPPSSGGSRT
A further assay deals with PIM2 (Homo sapiens, UniProt Q9P1W9). In words: Pim 2 AlphaScreen assay (high ATP). Particulars: read-out: Pim2 IC50. In a few lines: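 IC50 values rest on detection of phosphorylated Bad peptide: after a ~2 h kinase reaction, an EDTA stop buffer containing anti-phospho Ser/Thr antibody, Protein A and streptavidin AlphaScreen beads was added and read after overnight dark incubation. ATP was high (11-125× Km), with 2.5% DMSO in pH 7.5 Hepes buffer containing MgCl2, BSA, Tween-20 and DTT.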
PIM2, sequence (Q9P1W9 whole entry): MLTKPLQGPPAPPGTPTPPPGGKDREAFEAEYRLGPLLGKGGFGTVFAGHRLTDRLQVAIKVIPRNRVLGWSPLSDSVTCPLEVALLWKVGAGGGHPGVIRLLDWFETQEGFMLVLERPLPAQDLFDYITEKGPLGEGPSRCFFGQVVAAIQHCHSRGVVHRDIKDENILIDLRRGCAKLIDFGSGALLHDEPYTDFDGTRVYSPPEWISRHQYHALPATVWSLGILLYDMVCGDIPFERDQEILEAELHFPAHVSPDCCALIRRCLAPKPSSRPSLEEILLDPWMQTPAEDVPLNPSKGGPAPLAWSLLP

KDR kinase, sequence (P35968 20-1356): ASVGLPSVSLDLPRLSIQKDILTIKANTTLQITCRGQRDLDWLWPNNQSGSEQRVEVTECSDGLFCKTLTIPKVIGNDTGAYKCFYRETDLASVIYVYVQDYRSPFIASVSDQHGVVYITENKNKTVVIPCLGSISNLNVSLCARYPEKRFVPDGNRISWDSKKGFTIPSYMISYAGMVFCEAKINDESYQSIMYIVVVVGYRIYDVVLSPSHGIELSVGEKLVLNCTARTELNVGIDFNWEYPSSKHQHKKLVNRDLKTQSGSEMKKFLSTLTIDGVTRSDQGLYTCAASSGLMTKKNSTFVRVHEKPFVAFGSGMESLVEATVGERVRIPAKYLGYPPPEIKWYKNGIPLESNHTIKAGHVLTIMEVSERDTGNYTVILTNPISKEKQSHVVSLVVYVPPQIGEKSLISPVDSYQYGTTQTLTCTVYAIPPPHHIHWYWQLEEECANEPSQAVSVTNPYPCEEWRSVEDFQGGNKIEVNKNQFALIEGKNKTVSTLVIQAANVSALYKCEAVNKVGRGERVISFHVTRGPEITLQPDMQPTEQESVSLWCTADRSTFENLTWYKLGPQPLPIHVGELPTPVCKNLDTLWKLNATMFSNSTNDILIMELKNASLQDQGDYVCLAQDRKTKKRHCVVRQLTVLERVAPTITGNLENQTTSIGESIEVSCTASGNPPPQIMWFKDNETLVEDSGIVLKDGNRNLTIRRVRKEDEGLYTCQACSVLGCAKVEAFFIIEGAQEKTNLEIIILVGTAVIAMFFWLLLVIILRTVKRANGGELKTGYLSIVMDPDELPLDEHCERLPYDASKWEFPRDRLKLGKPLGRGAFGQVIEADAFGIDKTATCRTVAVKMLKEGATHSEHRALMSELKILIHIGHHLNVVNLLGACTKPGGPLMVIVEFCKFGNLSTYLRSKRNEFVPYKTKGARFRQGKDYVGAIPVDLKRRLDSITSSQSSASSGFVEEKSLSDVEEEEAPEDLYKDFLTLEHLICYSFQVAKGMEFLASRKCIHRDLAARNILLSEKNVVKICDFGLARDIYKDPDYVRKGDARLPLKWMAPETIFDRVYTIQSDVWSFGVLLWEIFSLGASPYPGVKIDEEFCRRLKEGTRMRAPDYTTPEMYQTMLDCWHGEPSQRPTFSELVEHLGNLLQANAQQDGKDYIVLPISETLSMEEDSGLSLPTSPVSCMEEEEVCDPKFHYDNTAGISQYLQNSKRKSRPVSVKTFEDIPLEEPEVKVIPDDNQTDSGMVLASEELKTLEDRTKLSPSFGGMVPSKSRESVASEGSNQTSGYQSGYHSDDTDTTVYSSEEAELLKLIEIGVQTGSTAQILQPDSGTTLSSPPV

For the compound `CC(C)(C)[C@@H]1O[C@H](c2ccncc2NC(=O)c2nc(-c3ccccc3)cnc2N)C[C@H](N)[C@H]1O` [Example 355, 3-amino-N-(4-((2S,4S,5R,6S)-4-amino-6-tert-butyl-5-hydroxytetrahydro-2H-pyran-2-yl)pyridin-3-yl)-6-phenylpyrazine-2-carboxamide], the IC50 (as a rule, the concentration needed to halve the response being measured) against KDR kinase was 6400 nM; at FGFR3 kinase, above 10000 nM; on PIM2 it was 8750 nM.
Turning to `Nc1ncc(-c2ccccc2)nc1C(=O)Nc1cnccc1[C@H]1C[C@@H](N)[C@@]2(O)CCC[C@H]2O1` [Example 183, 3-amino-N-(4-((2R,4R,4aS,7aR)-4-amino-4a-hydroxyoctahydrocyclopenta[b]pyran-2-yl)pyridin-3-yl)-6-phenylpyrazine-2-carboxamide], the 50% inhibitory concentration (IC50) was determined as 6.8 nM against KDR kinase, 44 nM on FGFR3 kinase and 76.6 nM at PIM2.
As for `CC(C)(C)[C@H]1O[C@@H](c2ccncc2NC(=O)c2nc(-c3ccccc3)cnc2N)C[C@H](N)[C@@H]1O` [Example 286, 3-amino-N-(4-((2R,4S,5S,6R)-4-amino-6-tert-butyl-5-hydroxytetrahydro-2H-pyran-2-yl)pyridin-3-yl)-6-phenylpyrazine-2-carboxamide], the figures for the IC50 on KDR kinase, against FGFR3 kinase and at PIM2 were 180 nM, 710 nM and 64.9 nM, respectively.
Regarding `C[C@@]1(O)[C@@H](N)C[C@@H](c2ccncc2NC(=O)c2nc(-c3ccccc3)cnc2N)O[C@H]1C1CC1` [Example 347, 3-amino-N-(4-((2S,4S,5R,6S)-4-amino-6-cyclopropyl-5-hydroxy-5-methyltetrahydro-2H-pyran-2-yl)pyridin-3-yl)-6-phenylpyrazine-2-carboxamide], the figures for the IC50 on KDR kinase, on FGFR3 kinase and on PIM2 were 3700 nM, 8800 nM and 8020 nM, respectively.
On the same counts, the results for `CC[C@H]1O[C@@H](c2ccncc2NC(=O)c2nc(-c3ccccc3)cnc2N)C[C@@H](N)[C@]1(C)O` [Example 348, 3-amino-N-(4-((2R,4R,5S,6R)-4-amino-6-ethyl-5-hydroxy-5-methyltetrahydro-2H-pyran-2-yl)pyridin-3-yl)-6-phenylpyrazine-2-carboxamide] are 150 nM, 420 nM and 146 nM.
On the same counts, the results for `CC(C)[C@@H]1C[C@H](N)C[C@H](c2ccncc2NC(=O)c2nc(-c3ccccc3)cnc2N)O1` [Example 291, 3-amino-N-(4-((2R,4S,6S)-4-amino-6-isopropyltetrahydro-2H-pyran-2-yl)pyridin-3-yl)-6-phenylpyrazine-2-carboxamide] are 340 nM, 1600 nM and 19.3 nM.
Turning to `CC(C)(C)[C@@H]1O[C@H](c2ccncc2NC(=O)c2nc(-c3ccccc3)cnc2N)C[C@@H](N)[C@H]1O` [Example 227, 3-amino-N-(4-((2S,4R,5R,6S)-4-amino-6-tert-butyl-5-hydroxytetrahydro-2H-pyran-2-yl)pyridin-3-yl)-6-phenylpyrazine-2-carboxamide], the IC50 against KDR kinase came out at 1700 nM; against FGFR3 kinase it was 2400 nM; at PIM2 it was 549 nM.
Take `CC[C@@H]1O[C@H](c2ccncc2NC(=O)c2nc(-c3ccccc3)cnc2N)C[C@H](N)[C@@]1(C)O` [Example 345, 3-amino-N-(4-((2S,4S,5R,6S)-4-amino-6-ethyl-5-hydroxy-5-methyltetrahydro-2H-pyran-2-yl)pyridin-3-yl)-6-phenylpyrazine-2-carboxamide]: the results for the IC50 against KDR kinase, against FGFR3 kinase and at PIM2 were 4400 nM, above 10000 nM and 7810 nM, respectively.
Turning to `C[C@H]1O[C@@H](c2ccncc2NC(=O)c2nc(-c3ccccc3)cnc2N)C[C@@H](N)[C@]1(C)O` [Example 228, 3-amino-N-(4-((2R,4R,5S,6R)-4-amino-5-hydroxy-5,6-dimethyltetrahydro-2H-pyran-2-yl)pyridin-3-yl)-6-phenylpyrazine-2-carboxamide], the IC50 at KDR kinase was found to be 38 nM; against FGFR3 kinase, 320 nM; at PIM2, 120 nM.
`C[C@]1(O)[C@H](N)C[C@H](c2ccncc2NC(=O)c2nc(-c3ccccc3)cnc2N)O[C@@H]1C1CC1` [Example 344, 3-amino-N-(4-((2R,4R,5S,6R)-4-amino-6-cyclopropyl-5-hydroxy-5-methyltetrahydro-2H-pyran-2-yl)pyridin-3-yl)-6-phenylpyrazine-2-carboxamide]: the concentration for half-maximal inhibition (IC50) at KDR kinase stood at 58 nM; against FGFR3 kinase it was 440 nM; at PIM2 it was 106 nM.
As to `C[C@@H]1O[C@H](c2ccncc2NC(=O)c2nc(-c3ccccc3)cnc2N)C[C@H](N)[C@@]1(C)O` [Example 229, 3-amino-N-(4-((2S,4S,5R,6S)-4-amino-5-hydroxy-5,6-dimethyltetrahydro-2H-pyran-2-yl)pyridin-3-yl)-6-phenylpyrazine-2-carboxamide], the figures for the IC50 at KDR kinase, against FGFR3 kinase and on PIM2 were 790 nM, 3400 nM and 3310 nM, respectively.
With `CC(C)(C)[C@H]1O[C@@H](c2ccncc2NC(=O)c2nc(-c3ccccc3)cnc2N)C[C@@H](N)[C@@H]1O` [Example 354, 3-amino-N-(4-((2R,4R,5S,6R)-4-amino-6-tert-butyl-5-hydroxytetrahydro-2H-pyran-2-yl)pyridin-3-yl)-6-phenylpyrazine-2-carboxamide], the IC50 is 62 nM against KDR kinase, 870 nM on FGFR3 kinase and 9 nM on PIM2.
For `CC(C)[C@@H]1O[C@H](c2ccncc2NC(=O)c2nc(-c3ccccc3)cnc2N)C[C@H](N)[C@H]1O` [Example 240, 3-amino-N-(4-((2S,4S,5R,6S)-4-amino-5-hydroxy-6-isopropyltetrahydro-2H-pyran-2-yl)pyridin-3-yl)-6-phenylpyrazine-2-carboxamide], in that order: 5100 nM, above 10000 nM and 2770 nM.
Consider `CC[C@@H]1O[C@H](c2ccncc2NC(=O)c2nc(-c3ccccc3)cnc2N)C[C@H](N)[C@H]1O` [Example 342, 3-amino-N-(4-((2S,4S,5R,6S)-4-amino-6-ethyl-5-hydroxytetrahydro-2H-pyran-2-yl)pyridin-3-yl)-6-phenylpyrazine-2-carboxamide], for which the 50% inhibitory concentration (IC50) against KDR kinase stood at 510 nM; against FGFR3 kinase, 1600 nM; on PIM2, 1370 nM.
